From patent US20060241099A1 (Pliva-Istrazivacki Institut d.o.o., priority 2003, published 2006)

Tests used:
5-HT2A receptor = target: T1, 5-HT2A receptor (Homo sapiens, UniProt P28223); assay: radioligand binding assay for 5-HT2A receptor ([3H]-ketanserin); settings: human cortex or recombinant 5-HT2A receptor expressed in CHO-K1 cells; for IC50: read-out: binding affinity to 5-HT2A serotonin receptor expressed as IC50 value; for Ki: read-out: binding affinity to 5-HT2A serotonin receptor, Ki value
T1 construct: expressed in transfected cells; host or cells: CHO-K1 (or human cortex tissue)
T1 sequence (P28223 whole entry): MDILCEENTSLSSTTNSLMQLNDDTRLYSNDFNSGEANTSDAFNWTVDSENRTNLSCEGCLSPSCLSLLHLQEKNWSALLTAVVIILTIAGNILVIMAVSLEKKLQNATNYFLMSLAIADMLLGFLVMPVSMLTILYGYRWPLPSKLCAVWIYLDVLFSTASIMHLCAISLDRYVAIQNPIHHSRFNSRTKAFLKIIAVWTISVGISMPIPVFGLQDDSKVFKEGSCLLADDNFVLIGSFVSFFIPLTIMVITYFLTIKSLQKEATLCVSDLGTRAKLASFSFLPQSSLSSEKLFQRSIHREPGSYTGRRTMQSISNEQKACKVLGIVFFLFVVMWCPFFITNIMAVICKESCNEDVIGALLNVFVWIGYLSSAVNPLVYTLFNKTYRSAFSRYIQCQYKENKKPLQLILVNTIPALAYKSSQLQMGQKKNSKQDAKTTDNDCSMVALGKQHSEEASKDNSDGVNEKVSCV
Method: (§1) The effect of the compounds of the present invention on the neurochemical steady state was determined by in vitro investigations such as a radionuclide-marked radioligand binding assay for 5-HT2A (Bonhaus D. W. Br. J. Pharmacol. 1995, 115:622; Saucier C. J. Neurochem. 1997, 68:1998) and 5-HT2C receptors (Wolf W. A. J. Neurochem. 1997, 69:1449), in vitro binding assay for al receptor (Thomson W. and Donn R. Arthritis Res. 2002, 4: 302-306) and by in vivo investigations in a tail suspension test (Vogel H. G. and Vogel W. H. Drug Discovery and Evaluation Pharmacological Assays, Springer 1997, 304), in amphethamine-induced hyperlocomotion in mice (Millan M. J. et al, 1998 J Pharmacol. Exp. Ther. 287: 167-186) in a forced swim test in mice (Porsolt R. D. et al. Arch. Int. Pharmacodyn. 1977, 229:327-336), in meta-chlorophenyl piperazine (m-CPP) test on rats (Drug Dev. Res. 1989, 18:119-144) and in apomorphine, tryptamine, norepinephrine (ATN) test in rats (Arch. Int. Pharmacodyn. 1977, 227:238-253).
(§2) A small concentration of a radioligand having a great affinity for binding to a receptor was incubated with a tissue sample enriched with a certain receptor (1-5 mg of tissue) in a buffered medium (0.2-5 μL). Recombinant human HT2A and HT2C receptors were expressed in CHO-K1 or COS-7 cells and were also used for competitive binding. During incubation the radioligand bound to the receptor. When a binding balance was achieved, the receptors to which the radioligand was bound were separated from those to which said ligand was not bound, and the radioactivity of the receptor/radioligand complex was measured. The interaction of the tested compounds with receptors was tested in competitive binding experiments. Various concentrations of tested compounds were added to the incubation mixture containing a prepared tissue enriched with corresponding receptors and the radioligand. The radioligand binding was inhibited by the test compounds proportionally to the affinity of a certain compound for the receptor and to the concentration of the compound.
The radioligand used for the determination of binding to 5-HT2A receptor was [^3H]-ketanserin and the tissue used was human cortex or recombinant 5-HT2A receptor expressed in CHO-K1 cells.

5-HT2C receptor = target: T2, 5-HT2C receptor (Homo sapiens, UniProt P28335); assay: radioligand binding assay for 5-HT2C receptor ([3H]-mesulergine); settings: choroid plexus or recombinant 5-HT2C receptor expressed in CHO-K1 cells; for IC50: read-out: binding affinity to 5-HT2C serotonin receptor expressed as IC50 value; for Ki: read-out: binding affinity to 5-HT2C serotonin receptor, Ki value
T2 construct: expressed in transfected cells; host or cells: CHO-K1 (or choroid plexus tissue)
T2 sequence (P28335 33-458): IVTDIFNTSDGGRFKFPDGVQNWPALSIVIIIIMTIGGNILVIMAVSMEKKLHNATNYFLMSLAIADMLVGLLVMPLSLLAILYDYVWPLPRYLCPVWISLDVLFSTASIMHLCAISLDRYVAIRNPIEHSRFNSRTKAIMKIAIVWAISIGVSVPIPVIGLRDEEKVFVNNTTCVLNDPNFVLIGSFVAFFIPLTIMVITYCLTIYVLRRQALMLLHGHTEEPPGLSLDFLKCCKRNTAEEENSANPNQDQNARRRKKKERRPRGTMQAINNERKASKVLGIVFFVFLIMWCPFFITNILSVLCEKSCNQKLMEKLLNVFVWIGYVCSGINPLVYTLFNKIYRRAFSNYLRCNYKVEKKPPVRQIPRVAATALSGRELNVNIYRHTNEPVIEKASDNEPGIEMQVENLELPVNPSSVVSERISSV
Method: as §1, §2
The radioligand used for the determination of binding to 5-HT2C receptor was [^3H]-mesulergine and the tissue used was choroid plexus or recombinant 5-HT2C receptor expressed in CHO-K1 cells.

σ1 receptor = target: T3, σ1 receptor (Homo sapiens, UniProt Q99720); assay: in vitro binding affinity to σ1 receptor, Jurkat cell membranes, [3H]haloperidol; settings: for IC50: read-out: binding affinity to σ1 receptor expressed as IC50 value
T3 construct: endogenous in cells; host or cells: Jurkat cell membranes
T3 sequence (Q99720 whole entry): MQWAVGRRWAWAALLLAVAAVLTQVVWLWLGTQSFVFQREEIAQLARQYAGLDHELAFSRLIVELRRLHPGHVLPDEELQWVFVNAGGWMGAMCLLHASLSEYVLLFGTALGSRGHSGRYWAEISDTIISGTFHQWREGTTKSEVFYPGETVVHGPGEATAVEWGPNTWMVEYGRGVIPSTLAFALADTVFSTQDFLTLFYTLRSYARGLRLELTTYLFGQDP
Method: as §1
Jurkat cell were grown in medium, RPMI supplemented with 10% fetal bovine serum, 100 U/ml penicillin and 100 μg/ml streptomycin, collected and their suspension homogenized. After centrifugation, the membrane fraction was separated, resuspended in phosphate buffer (pH=7.5) and stored in small aliquots in liquid nitrogen until use. Binding of different radiolabeled ligands to Jurkat cell membranes was measured as described previously (Ramamoorthy et al., 1995). To characterize the σ binding sites in the Jurkat cell line, [^3H]haloperidol was first used as the ligand. Haloperidol is a high affinity ligand to both type 1 and type 2 σ-receptors. The binding assays were done using Jurkat cell membranes in the presence of [^3H]haloperidol ([…]) alone to determine the total binding, and in the presence of [^3H]haloperidol (10 nM) and unlabeled haloperidol (10 μM) to determine the nonspecific binding. Membranes were incubated with ligands in phosphate buffer for 3 hours at room temperature. After the filter had been washed, radioactivity associated with the filter was determined by liquid scintillation spectrometry.

mice = assay: amphetamine-induced hyperlocomotion in mice; type: in vivo; settings: male Swiss OFA mice, per os in saline, test doses of 1 mg/kg and 0,1 mg/kg, dexamphetamine sulphate 2 mg/kg i.p.
Method: Male Swiss OFA mice of a weight 30-35 g were treated with either vehicle (saline) or test compounds 30 minutes prior to hyperlocomotion induction. Dexamphetamine sulphate was administered intraperitoneally at 2 mg/kg. Thirty minutes later, animals were placed in a wooden box 80×80 cm^2 in a room with low light intensity (100 lux) for locomotor activity recording. Locomotor activity was determined during a 30 min period using a video image analyzer. Total duration of movement, occurence of movement and total distance travelled were measured. Haloperidol was tested at the dose of 0,25 mg/kg (prepared in 0.5% methylcellulose) and served as reference substance.
Compounds were considered as active if in a dose of 10 mg/kg reduced amphetamine-induced hyperlocomotion in experimental animals for 30% and more when compared to vehicle treated control group.

For `NCCCOCc1scc2c1-c1cc(Cl)ccc1Oc1ccccc1-2`, the IC50 (5-HT2A receptor) was under 200 nM, the Ki (5-HT2A receptor) was under 100 nM and the IC50 (5-HT2C receptor) was under 200 nM. It also gave a Ki (5-HT2C receptor) of under 100 nM.

`NCCCOCc1scc2c1-c1ccccc1Oc1ccccc1-2` [3-(8-oxa-2-thia-dibenzo[e,h]azulen-1-ylmethoxy)-propylamine] was tested, and the IC50 (5-HT2A receptor) was under 200 nM, the Ki (5-HT2A receptor) was under 100 nM and the IC50 (5-HT2C receptor) was under 200 nM. It also gave a Ki (5-HT2C receptor) of under 100 nM.

Work on `CN(C)CCOCc1scc2c1-c1ccccc1Sc1ccccc1-2` [[2-(2,8-dithia-dibenzo[e,h]azulen-1-ylmethoxy)-ethyl]-dimethyl-amine] yielded an IC50 (5-HT2A receptor) of under 200 nM, a Ki (5-HT2A receptor) of under 100 nM and an IC50 (5-HT2C receptor) of under 200 nM. It also gave a Ki (5-HT2C receptor) of under 100 nM, a Ki (σ1 receptor) of under 100 nM and an IC50 (σ1 receptor) of under 200 nM.

With `CN(C)CCOCc1scc2c1-c1ccccc1Oc1ccc(Cl)cc1-2` [[2-(5-chloro-8-oxa-2-thia-dibenzo[e,h]azulen-1-ylmethoxy)-ethyl]-dimethyl-amine] the IC50 (5-HT2A receptor) was under 200 nM, the Ki (5-HT2A receptor) was under 100 nM and the IC50 (5-HT2C receptor) was under 200 nM. The Ki (5-HT2C receptor) was under 100 nM, the Ki (σ1 receptor) was under 100 nM and the IC50 (σ1 receptor) was under 200 nM.

With `CN(C)CCCOCc1scc2c1-c1ccccc1Sc1ccccc1-2` [[3-(2,8-dithia-dibenzo[e,h]azulen-1-ylmethoxy)-propyl]-dimethyl-amine] the IC50 (5-HT2A receptor) was under 200 nM, the Ki (5-HT2A receptor) was under 100 nM and the IC50 (5-HT2C receptor) was under 200 nM. For the same compound, the Ki (5-HT2C receptor) was under 100 nM, the Ki (σ1 receptor) was under 100 nM and the IC50 (σ1 receptor) was under 200 nM.

With `CN(C)CCOCc1scc2c1-c1ccccc1Oc1ccccc1-2` [dimethyl-[2-(8-oxa-2-thia-dibenzo[e,h]azulen-1-ylmethoxy)-ethyl]-amine] the IC50 (5-HT2A receptor) was under 200 nM, the Ki (5-HT2A receptor) was under 100 nM and the IC50 (5-HT2C receptor) was under 200 nM. The Ki (5-HT2C receptor) was under 100 nM, the Ki (σ1 receptor) was under 100 nM and the IC50 (σ1 receptor) was under 200 nM.

With `CN(C)CCCOCc1scc2c1-c1ccccc1Oc1ccccc1-2` [dimethyl-[3-(8-oxa-2-thia-dibenzo[e,h]azulen-1-ylmethoxy)-propyl]-amine] the IC50 (5-HT2A receptor) was under 200 nM, the Ki (5-HT2A receptor) was under 100 nM and the IC50 (5-HT2C receptor) was under 200 nM. It also gave a Ki (5-HT2C receptor) of under 100 nM.

For “[2-(2,8-dithia-dibenzo[e,h]azulen-1-ylmethoxy)-ethyl]-dimethyl-ammonium citrate”, the “inhibition of amphetamine-induced hyperlocomotion” value (mice) was 40-60%.
